This is an account of results in US20080171760A1, “SPIROPIPERIDINE GLYCINAMIDE DERIVATIVES” (priority 2007, published 2008).

The target in the test is T1, human V1a receptor (Homo sapiens, UniProt P37288).
T1 construct: expressed in transfected cells; host or cells: HEK293 cells, transiently transfected; cell membranes
T1 sequence (P37288 whole entry): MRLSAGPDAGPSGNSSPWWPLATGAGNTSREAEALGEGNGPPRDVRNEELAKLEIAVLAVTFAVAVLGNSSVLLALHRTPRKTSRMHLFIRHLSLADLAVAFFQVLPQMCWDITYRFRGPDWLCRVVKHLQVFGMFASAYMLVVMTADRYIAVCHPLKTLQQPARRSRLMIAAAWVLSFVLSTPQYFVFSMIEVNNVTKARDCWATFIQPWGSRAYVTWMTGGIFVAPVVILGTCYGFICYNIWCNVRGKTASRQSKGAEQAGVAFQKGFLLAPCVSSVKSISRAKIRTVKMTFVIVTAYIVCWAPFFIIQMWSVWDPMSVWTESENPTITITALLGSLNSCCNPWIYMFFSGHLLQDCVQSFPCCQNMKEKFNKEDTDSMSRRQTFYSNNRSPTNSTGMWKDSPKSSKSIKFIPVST
As to the kind of experiment: human V1a receptor binding study (3H-Vasopressin, SPA beads). The following applies: membranes of HEK293 cells transiently transfected with human V1a receptor, Ki calculated using the Cheng-Prussoff equation, read-out: pKi hV1a (converted). The protocol: The human V1a receptor was cloned by RT-PCR from total human liver RNA. The coding sequence was subcloned in an expression vector after sequencing to confirm the identity of the amplified sequence. […] Cell membranes were prepared from HEK293 cells transiently transfected with the expression vector and grown in 20 liter fermenters with the following protocol.
50 g of cells were resuspended in 30 ml freshly prepared ice cold Lysis buffer (50 mM HEPES, 1 mM EDTA, 10 mM MgCl2 adjusted to pH=7.4+complete cocktail of protease inhibitor (Roche Diagnostics)), homogenized with Polytron for 1 min, and sonicated on ice for 2×2 minutes at 80% intensity (Vibracell sonicator). The preparation was centrifuged 20 min at 500 g at 4° C., the pellet was discarded and the supernatant centrifuged 1 hour at 43,000 g at 4° C. (19,000 rpm). The pellet was resuspended in 12.5 ml Lysis buffer+12.5 ml Sucrose 20% and homogenized using a Polytron for 1-2 min. The protein concentration was determined by the Bradford method and aliquots are stored at −80° C. until use. For binding studies 60 mg Yttrium silicate SPA beads (Amersham) were mixed with an aliquot of membrane in binding buffer (50 mM Tris, 120 mM NaCl, 5 mM KCl, 2 mM CaCl2, 10 mM MgCl2) for 15 minutes with mixing. 50 ul of bead/membrane mixture was then added to each well of a 96 well plate, followed by 50 ul of 4 nM 3H-Vasopressin (American Radiolabeled Chemicals). For total binding measurement 100 ul of binding buffer were added to the respective wells, for non-specific binding 100 ul of 8.4 mM cold vasopressin and for compound testing 100 ul of a serial dilution of each compound in 2% DMSO. The plate was incubated 1 h at room temperature, centrifuged 1 min at 1000 g and counted on a Packard Top-Count. Non-specific binding counts were subtracted from each well and data was normalized to the maximum specific binding set at 100%. To calculate an IC 50 the curve was fitted using a non-linear regression model (XLfit) and the Ki is calculated using the Cheng-Prussoff equation.
For the compound `O=C(CNC(c1ccccc1)c1ccc(Cl)cc1)N1CCC2(CC1)OCc1ccccc12` (racemic) [Example 2, (RS)—N-[(4-Chlorophenyl)(phenyl)methyl]-2-oxo-2-(1′H,3H-spiro[2-benzofuran-1,4′-piperidin]-1′-yl)ethanamine], the Ki is 9.12 nM.
In the case of `O=C(CNC(c1ccccc1)c1cccc(Cl)c1)N1CCC2(CC1)OCc1ccccc12` (racemic) [Example 8, (RS)—N-[(3-Chlorophenyl)(phenyl)methyl]-2-oxo-2-(1′H,3H-spiro[2-benzofuran-1,4′-piperidin]-1′-yl)ethanamine] it was 14.8 nM.
Take `O=C(CNC(c1ccccc1)c1ccc(Cl)c(Cl)c1)N1CCC2(CC1)OCc1ccccc12` (racemic) [Example 9, (RS)—N-[(3,4-Dichlorophenyl)(phenyl)methyl]-2-oxo-2-(1′H,3H-spiro[2-benzofuran-1,4′-piperidin]-1′-yl)ethanamine]: the Ki is 14.5 nM.
In the case of `O=C(CNC(c1ccccc1)c1cccc(C(F)(F)F)c1)N1CCC2(CC1)OCc1ccccc12` (racemic) [Example 12, (RS)-2-Oxo-N-{phenyl[3-(trifluoromethyl)phenyl]methyl}-2-(1′H,3H-spiro[2-benzofuran-1,4′-piperidin]-1′-yl)ethanamine] it was 30.2 nM; in that of `O=C(CNC(c1ccc(F)cc1)c1cccc(C(F)(F)F)c1)N1CCC2(CC1)OCc1ccccc12` (racemic) [Example 13, (RS)—N-{(4-Fluorophenyl)[3-(trifluoromethyl)phenyl]methyl}-2-oxo-2-(1′H,3H-spiro[2-benzofuran-1,4′-piperidin]-1′-yl)ethanamine], 29.5 nM; in that of `O=C(CNC(c1ccccc1)c1ccc(C(F)(F)F)cc1)N1CCC2(CC1)OCc1ccccc12` (racemic) [Example 18, (RS)-2-Oxo-N-{phenyl[4-(trifluoromethyl)phenyl]methyl}-2-(1′H,3H-spiro[2-benzofuran-1,4′-piperidin]-1′-yl)ethanamine], 20.9 nM.
In the case of `O=C(CNC(c1ccccc1)c1cccs1)N1CCC2(CC1)OCc1ccccc12` (racemic) [Example 20, (RS)-2-Oxo-N-[phenyl(2-thienyl)methyl]-2-(1′H,3H-spiro[2-benzofuran-1,4′-piperidin]-1′-yl)ethanamine] it was 9.12 nM.
In the case of `O=C(CNC(c1ccccc1)c1ccccn1)N1CCC2(CC1)OCc1ccccc12` (racemic) [Example 27, (RS)-2-Oxo-N-[phenyl(pyridin-2-yl)methyl]-2-(1′H,3H-spiro[2-benzofuran-1,4′-piperidin]-1′-yl)ethanamine] it was 18.2 nM; in that of `O=C(CNC(c1ccc(F)cc1)c1cccs1)N1CCC2(CC1)OCc1ccccc12` (racemic) [Example 29, (RS)—N-[(4-Fluorophenyl)(2-thienyl)methyl]-2-oxo-2-(1′H,3H-spiro[2-benzofuran-1,4′-piperidin]-1′-yl)ethanamine], 15.8 nM; in that of `Cc1n[nH]c(C)c1C(NCC(=O)N1CCC2(CC1)OCc1ccccc12)c1ccccc1` (racemic) [Example 30, (RS)—N-[(3,5-Dimethyl-1H-pyrazol-4-yl)(phenyl)methyl]-2-oxo-2-(1′H,3H-spiro[2-benzofuran-1,4′-piperidin]-1′-yl)ethanamine], 23.4 nM.
Turning to `Cc1cccc(C(NCC(=O)N2CCC3(CC2)OCc2ccccc23)c2ccccc2)c1` (racemic) [Example 34, (RS)—N-[(3-Methylphenyl)(phenyl)methyl]-2-oxo-2-(1′H,3H-spiro[2-benzofuran-1,4′-piperidin]-1′-yl)ethanamine], the Ki was 18.6 nM.
In the case of `O=C(CNC(c1ccccc1)c1cc(Cl)ccc1O)N1CCC2(CC1)OCc1ccccc12` (racemic) [Example 37, (RS)-4-Chloro-2-[{[2-oxo-2-(1′H,3H-spiro[2-benzofuran-1,4′-piperidin]-1′yl)ethyl]amino}(phenyl)methyl]phenol] it was 14.5 nM; in that of `C[C@](O)(c1ccccn1)[C@H](NCC(=O)N1CCC2(CC1)OCc1ccccc12)c1ccc(Cl)cc1` (racemic) [Example 49, (1RS,2RS)-1-(4-Chlorophenyl)-1-{[2-oxo-2-(1′H,3H-spiro[2-benzofuran-1,4′-piperidin]-1′-yl)ethyl]amino}-2-pyridin-2-yl-propan-2-ol], 18.6 nM; in that of `O=C(CNC(c1cccc(Cl)c1)c1ncco1)N1CCC2(CC1)OCc1ccccc12` (racemic) [Example 68, (RS)—N-[(3-Chlorophenyl) (1,3-oxazol-2-yl)methyl]-2-oxo-2-(1′H,3H-spiro [2-benzofuran-1,4′-piperidin]-1′-yl)ethanamine], 8.51 nM.
In the case of `O=C(CN[C@@H](c1ccccc1)c1ccc(Cl)cc1)N1CCC2(CC1)OCc1ccccc12` (single isomer, unassigned) [Example 4, N-[(+)-(4-chlorophenyl)(phenyl)methyl]-2-oxo-2-(1′H,3H-spiro[2-benzofuran-1,4′-piperidin]-1′-yl)ethanamine] it was 20.4 nM.
In the case of `O=C(CNC(c1ccccc1)c1ccccc1)N1CCC2(CC1)OCc1ccccc12` [Example 6, N-(Diphenylmethyl)-2-oxo-2-(1′H,3H-spiro[2-benzofuran-1,4′-piperidin]-1′-yl)ethanamine], the Ki is 11.7 nM.
For the compound `O=C(Nc1ccc(Cl)cc1)[C@H](NCC(=O)N1CCC2(CC1)OCc1ccccc12)c1ccccc1` [Example 31, (2R)—N-(4-Chlorophenyl)-2-{[2-oxo-2-(1′H,3H-spiro[2-benzofuran-1,4′-piperidin]-1′-yl)ethyl]amino}-2-phenylacetamide], the Ki was 42.7 nM.
Consider `O=C(CN[C@H](c1ccc(Cl)cc1)[C@@H](O)c1ccc(N2CCOCC2)cc1)N1CCC2(CC1)OCc1ccccc12` [Example 46], for which the Ki is 24 nM.
In the case of `CC(O)(c1ccncc1)C(NCC(=O)N1CCC2(CC1)OCc1ccccc12)c1ccc(Cl)cc1` (stereo not shown) [Example 52, 1-(4-Chlorophenyl)-1-{[2-oxo-2-(1′H,3H-spiro[2-benzofuran-1,4-piperidin]-1′-yl)ethyl]amino}-2-pyridin-4-ylpropan-2-ol] it was 26.3 nM; in that of `O=C(CN[C@@H](C(=O)N1CC(O)C1)c1ccccc1)N1CCC2(CC1)OCc1ccccc12` [Example 71, 1-[(2R)-2-{[2-Oxo-2-(1′H,3H-spiro[2-benzofuran-1,4′-piperidin]-1′-yl)ethyl]amino}-2-phenylacetyl]azetidin-3-ol], 79.4 nM.
In the case of `O=C1OC2(CCN(C(=O)CNC(c3ccccc3)c3ccccc3)CC2)c2ccccc21` [Example 92, 1′-[N-(Diphenylmethyl)glycyl]-3H-spiro[2-benzofuran-1,4′-piperidin]-3-one] it was 42.7 nM; in that of `CN(CC(=O)N1CCC2(CC1)OCc1ccccc12)C(c1ccccc1)c1ccccc1` [Example 93, N-(Diphenylmethyl)-N-methyl-2-oxo-2-(1′H,3H-spiro[2-benzofuran-1,4′-piperidin]-1′-yl)ethanamine], 28.2 nM.
